Source: the kinase profiling compilation of Christmann-Franck et al. (2016)

Key:
Test in all cases: KINOMEscan competition binding
Settings in all cases: compound 10.0 µM
AAK1 (human) = AAK1 (human) (UniProt Q2M2I8)
ABL2 (human) = ABL2 (human) (UniProt P42684)
ACVR1 (human) = ACVR1 (human) (UniProt Q04771)
ADCK4 (human) = ADCK4 (human) (UniProt Q96D53)
AXL (human) = AXL (human) (UniProt P30530)
CAMK1G (human) = CAMK1G (human) (UniProt Q96NX5)
EPHA7 (human) = EPHA7 (human) (UniProt Q15375)
EPHB4 (human) = EPHB4 (human) (UniProt P54760)
FGFR4 (human) = FGFR4 (human) (UniProt P22455)
[1] = test system: FLT3 (human), P36888 [ITD]
IGF1R (human) = IGF1R (human) (UniProt P08069)
IKBKB (human) = IKBKB (human) (UniProt O14920)
[2] = target: JAK1 JH2 pseudokinase (human) (UniProt P23458)
LIMK1 (human) = LIMK1 (human) (UniProt P53667)
MARK4 (human) = MARK4 (human) (UniProt Q96L34)
MYO3A (human) = MYO3A (human) (UniProt Q8NEV4)
NEK1 (human) = NEK1 (human) (UniProt Q96PY6)
PDPK1 (human) = PDPK1 (human) (UniProt O15530)
PKMYT1 (human) = PKMYT1 (human) (UniProt Q99640)
PKN1 (human) = PKN1 (human) (UniProt Q16512)
PKN2 (human) = PKN2 (human) (UniProt Q16513)
PLK4 (human) = PLK4 (human) (UniProt O00444)
PRKCD (human) = PRKCD (human) (UniProt Q05655)
PRKD3 (human) = PRKD3 (human) (UniProt O94806)
PTK2 (human) = PTK2 (human) (UniProt Q05397)
RIOK3 (human) = RIOK3 (human) (UniProt O14730)
RPS6KA2 KD2 (human) = RPS6KA2 KD2 (human) (UniProt Q15349)
RPS6KA4 KD1 (human) = RPS6KA4 KD1 (human) (UniProt O75676)
SRPK3 (human) = SRPK3 (human) (UniProt Q9UPE1)
STK25 (human) = STK25 (human) (UniProt O00506)
STK3 (human) = STK3 (human) (UniProt Q13188)
STK32C (human) = STK32C (human) (UniProt Q86UX6)
TEC (human) = TEC (human) (UniProt P42680)
TGFBR1 (human) = TGFBR1 (human) (UniProt P36897)
TNK1 (human) = TNK1 (human) (UniProt Q13470)
ULK2 (human) = ULK2 (human) (UniProt Q8IYT8)
WEE2 (human) = WEE2 (human) (UniProt P0C1S8)
ZAP70 (human) = ZAP70 (human) (UniProt P43403)
HCK (human) = HCK (human) (UniProt P08631)
ITK (human) = ITK (human) (UniProt Q08881)

Chain of MARK4 (human) (Q96L34 whole entry, looked up): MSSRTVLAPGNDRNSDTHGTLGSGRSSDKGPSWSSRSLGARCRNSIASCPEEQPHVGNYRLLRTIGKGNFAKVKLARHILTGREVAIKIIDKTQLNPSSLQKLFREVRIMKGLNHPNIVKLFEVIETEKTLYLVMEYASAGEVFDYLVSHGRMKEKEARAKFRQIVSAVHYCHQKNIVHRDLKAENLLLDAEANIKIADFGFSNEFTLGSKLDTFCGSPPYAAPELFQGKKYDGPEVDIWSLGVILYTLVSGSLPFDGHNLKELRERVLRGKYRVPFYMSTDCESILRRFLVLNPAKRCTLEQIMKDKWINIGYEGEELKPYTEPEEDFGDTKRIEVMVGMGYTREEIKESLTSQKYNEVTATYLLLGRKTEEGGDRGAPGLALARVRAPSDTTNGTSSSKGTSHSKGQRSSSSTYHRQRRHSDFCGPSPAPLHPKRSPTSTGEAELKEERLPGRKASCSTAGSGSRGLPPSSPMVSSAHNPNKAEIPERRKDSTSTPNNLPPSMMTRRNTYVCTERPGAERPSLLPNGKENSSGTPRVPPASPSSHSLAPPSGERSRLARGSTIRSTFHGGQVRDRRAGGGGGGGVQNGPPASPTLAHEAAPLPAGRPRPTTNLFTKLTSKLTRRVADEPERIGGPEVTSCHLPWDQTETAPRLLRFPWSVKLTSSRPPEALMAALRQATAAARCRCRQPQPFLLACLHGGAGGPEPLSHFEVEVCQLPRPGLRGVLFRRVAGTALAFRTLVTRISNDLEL
Chain of MYO3A (human) (Q8NEV4 whole entry, looked up): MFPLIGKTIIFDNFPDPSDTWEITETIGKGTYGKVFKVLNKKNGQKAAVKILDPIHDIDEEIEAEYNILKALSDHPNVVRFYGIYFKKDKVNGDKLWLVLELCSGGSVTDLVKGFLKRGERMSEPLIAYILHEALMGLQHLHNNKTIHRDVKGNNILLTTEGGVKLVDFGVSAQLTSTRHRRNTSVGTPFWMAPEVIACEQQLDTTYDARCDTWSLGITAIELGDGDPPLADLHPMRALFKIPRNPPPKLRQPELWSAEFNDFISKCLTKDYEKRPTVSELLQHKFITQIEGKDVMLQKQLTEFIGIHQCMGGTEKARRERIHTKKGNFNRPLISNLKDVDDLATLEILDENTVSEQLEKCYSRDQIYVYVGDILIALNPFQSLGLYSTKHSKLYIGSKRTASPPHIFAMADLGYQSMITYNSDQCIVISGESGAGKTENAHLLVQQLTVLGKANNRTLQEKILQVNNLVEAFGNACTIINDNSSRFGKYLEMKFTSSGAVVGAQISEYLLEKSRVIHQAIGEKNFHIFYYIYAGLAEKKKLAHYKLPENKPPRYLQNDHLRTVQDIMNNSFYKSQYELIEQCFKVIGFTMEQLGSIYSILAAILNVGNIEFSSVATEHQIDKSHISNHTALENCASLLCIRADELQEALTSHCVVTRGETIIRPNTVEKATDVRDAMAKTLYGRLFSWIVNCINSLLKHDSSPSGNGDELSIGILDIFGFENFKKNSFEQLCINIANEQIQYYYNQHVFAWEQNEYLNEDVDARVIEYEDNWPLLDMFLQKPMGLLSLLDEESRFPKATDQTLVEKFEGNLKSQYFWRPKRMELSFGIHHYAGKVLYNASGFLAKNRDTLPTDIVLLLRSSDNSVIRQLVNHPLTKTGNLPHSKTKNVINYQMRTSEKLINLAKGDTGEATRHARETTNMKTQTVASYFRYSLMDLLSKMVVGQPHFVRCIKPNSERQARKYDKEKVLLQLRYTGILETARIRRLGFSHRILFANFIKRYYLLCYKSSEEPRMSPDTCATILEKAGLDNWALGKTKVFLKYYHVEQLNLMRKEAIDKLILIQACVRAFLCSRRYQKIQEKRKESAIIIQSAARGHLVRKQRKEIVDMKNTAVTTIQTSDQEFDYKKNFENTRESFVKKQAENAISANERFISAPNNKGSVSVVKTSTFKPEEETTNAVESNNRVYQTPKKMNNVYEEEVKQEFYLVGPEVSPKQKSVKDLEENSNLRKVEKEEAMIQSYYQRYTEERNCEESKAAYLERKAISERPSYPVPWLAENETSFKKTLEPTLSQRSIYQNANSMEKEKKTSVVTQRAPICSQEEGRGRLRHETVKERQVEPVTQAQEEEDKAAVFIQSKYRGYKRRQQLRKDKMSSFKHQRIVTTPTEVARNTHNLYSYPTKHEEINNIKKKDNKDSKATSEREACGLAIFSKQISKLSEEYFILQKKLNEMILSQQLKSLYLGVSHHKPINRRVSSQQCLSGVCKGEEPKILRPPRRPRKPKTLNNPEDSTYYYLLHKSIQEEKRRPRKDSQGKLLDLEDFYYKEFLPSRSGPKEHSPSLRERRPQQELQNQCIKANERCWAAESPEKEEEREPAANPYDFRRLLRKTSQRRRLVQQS
Chain of ADCK4 (human) (Q96D53 whole entry, looked up): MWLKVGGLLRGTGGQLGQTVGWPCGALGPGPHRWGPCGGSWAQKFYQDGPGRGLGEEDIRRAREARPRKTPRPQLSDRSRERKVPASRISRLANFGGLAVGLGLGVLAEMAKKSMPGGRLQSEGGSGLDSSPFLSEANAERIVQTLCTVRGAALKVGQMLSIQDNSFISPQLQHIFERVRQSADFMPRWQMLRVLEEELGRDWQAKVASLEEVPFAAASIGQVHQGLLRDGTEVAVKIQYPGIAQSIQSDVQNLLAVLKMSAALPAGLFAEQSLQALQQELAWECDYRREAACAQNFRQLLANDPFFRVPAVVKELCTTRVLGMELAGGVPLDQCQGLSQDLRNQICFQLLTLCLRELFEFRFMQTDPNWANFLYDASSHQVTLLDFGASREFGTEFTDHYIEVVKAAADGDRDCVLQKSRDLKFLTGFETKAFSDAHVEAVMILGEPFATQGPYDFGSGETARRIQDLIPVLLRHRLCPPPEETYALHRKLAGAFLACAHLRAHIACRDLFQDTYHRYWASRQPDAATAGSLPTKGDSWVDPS
Chain of PKN1 (human) (Q16512 whole entry, looked up): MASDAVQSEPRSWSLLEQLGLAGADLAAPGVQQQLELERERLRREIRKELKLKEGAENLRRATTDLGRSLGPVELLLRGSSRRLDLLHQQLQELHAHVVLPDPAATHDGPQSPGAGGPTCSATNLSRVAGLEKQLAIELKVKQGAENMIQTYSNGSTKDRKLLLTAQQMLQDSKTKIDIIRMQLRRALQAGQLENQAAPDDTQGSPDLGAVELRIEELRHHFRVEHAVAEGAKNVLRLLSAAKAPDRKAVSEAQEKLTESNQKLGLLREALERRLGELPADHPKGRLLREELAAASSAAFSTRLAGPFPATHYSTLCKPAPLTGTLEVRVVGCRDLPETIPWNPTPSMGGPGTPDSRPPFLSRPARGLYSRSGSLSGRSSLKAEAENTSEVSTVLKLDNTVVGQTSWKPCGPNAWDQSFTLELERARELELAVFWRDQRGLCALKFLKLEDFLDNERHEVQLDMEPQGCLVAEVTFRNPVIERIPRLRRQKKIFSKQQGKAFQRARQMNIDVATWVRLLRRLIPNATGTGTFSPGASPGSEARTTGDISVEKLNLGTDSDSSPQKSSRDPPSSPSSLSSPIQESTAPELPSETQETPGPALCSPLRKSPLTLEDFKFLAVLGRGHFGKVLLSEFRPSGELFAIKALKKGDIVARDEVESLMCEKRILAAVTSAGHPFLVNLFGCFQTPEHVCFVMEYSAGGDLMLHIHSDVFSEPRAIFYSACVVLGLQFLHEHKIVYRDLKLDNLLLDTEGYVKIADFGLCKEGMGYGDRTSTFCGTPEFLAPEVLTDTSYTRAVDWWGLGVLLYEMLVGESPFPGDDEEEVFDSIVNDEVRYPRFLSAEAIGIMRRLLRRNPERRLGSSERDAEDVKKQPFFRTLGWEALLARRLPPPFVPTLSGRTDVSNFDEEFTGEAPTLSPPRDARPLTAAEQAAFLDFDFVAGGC
Chain of TNK1 (human) (Q13470 whole entry, looked up): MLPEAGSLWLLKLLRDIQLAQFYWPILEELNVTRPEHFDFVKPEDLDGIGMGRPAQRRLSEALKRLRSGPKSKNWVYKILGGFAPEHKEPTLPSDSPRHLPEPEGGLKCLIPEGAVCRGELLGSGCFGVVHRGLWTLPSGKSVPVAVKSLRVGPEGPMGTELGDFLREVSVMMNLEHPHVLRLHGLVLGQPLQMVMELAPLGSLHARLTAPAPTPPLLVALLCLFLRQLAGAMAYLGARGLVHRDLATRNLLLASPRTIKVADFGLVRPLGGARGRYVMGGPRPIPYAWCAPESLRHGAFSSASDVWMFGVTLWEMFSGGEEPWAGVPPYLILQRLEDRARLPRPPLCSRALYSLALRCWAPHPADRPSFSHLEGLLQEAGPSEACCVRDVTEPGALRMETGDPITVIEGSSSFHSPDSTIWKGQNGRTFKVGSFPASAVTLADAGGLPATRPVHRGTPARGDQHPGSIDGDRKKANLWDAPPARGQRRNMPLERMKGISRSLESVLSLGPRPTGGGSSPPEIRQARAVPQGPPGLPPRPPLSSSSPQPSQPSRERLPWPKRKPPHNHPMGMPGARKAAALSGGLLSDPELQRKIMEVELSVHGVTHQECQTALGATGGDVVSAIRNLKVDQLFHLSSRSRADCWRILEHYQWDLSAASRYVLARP
Chain of RIOK3 (human) (O14730 whole entry, looked up): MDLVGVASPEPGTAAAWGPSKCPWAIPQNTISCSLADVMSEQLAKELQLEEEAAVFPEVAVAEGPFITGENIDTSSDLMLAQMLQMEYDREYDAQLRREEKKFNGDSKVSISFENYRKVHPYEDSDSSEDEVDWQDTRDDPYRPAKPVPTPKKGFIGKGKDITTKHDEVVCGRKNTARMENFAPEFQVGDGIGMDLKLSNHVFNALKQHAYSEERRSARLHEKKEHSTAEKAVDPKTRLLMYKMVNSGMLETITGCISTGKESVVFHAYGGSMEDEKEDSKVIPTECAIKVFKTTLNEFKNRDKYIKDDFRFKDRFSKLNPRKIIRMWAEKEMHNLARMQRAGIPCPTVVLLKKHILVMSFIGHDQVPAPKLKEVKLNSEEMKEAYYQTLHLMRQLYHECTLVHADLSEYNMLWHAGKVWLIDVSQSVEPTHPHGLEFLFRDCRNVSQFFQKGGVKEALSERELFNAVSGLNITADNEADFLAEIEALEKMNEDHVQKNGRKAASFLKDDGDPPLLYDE

SMILES | kinase still bound, per cent of control (AAK1 (human)) [%] | kinase still bound, per cent of control (ABL2 (human)) [%] | kinase still bound, per cent of control (ACVR1 (human)) [%] | kinase still bound, per cent of control (ADCK4 (human)) [%] | kinase still bound, per cent of control (AXL (human)) [%] | kinase still bound, per cent of control (CAMK1G (human)) [%] | kinase still bound, per cent of control (EPHA7 (human)) [%] | kinase still bound, per cent of control (EPHB4 (human)) [%] | kinase still bound, per cent of control (FGFR4 (human)) [%] | kinase still bound, per cent of control (IGF1R (human)) [%] | kinase still bound, per cent of control (IKBKB (human)) [%] | kinase still bound, per cent of control [2] [%] | kinase still bound, per cent of control (LIMK1 (human)) [%] | kinase still bound, per cent of control (MARK4 (human)) [%] | kinase still bound, per cent of control (MYO3A (human)) [%] | kinase still bound, per cent of control (NEK1 (human)) [%] | kinase still bound, per cent of control (PDPK1 (human)) [%] | kinase still bound, per cent of control (PKMYT1 (human)) [%] | kinase still bound, per cent of control (PKN1 (human)) [%] | kinase still bound, per cent of control (PKN2 (human)) [%] | further results
O=C(O)c1ccc(Nc2ncc3c(n2)-c2ccc(Cl)cc2C(c2c(F)cccc2F)=NC3)cc1 | 90 | 30 | 100 | 95 | 4.4 | 79 | 8.8 | 11 | 58 | 73 | 100 | 80 | 85 | 100 | 80 | 56 | 35 | 65 | 83 | 79 | kinase still bound, per cent of control [1]: 87%; kinase still bound, per cent of control (PLK4 (human)): 14%; kinase still bound, per cent of control (PRKCD (human)): 100%; kinase still bound, per cent of control (PRKD3 (human)): 96%; kinase still bound, per cent of control (PTK2 (human)): 23%; kinase still bound, per cent of control (RIOK3 (human)): 100%; kinase still bound, per cent of control (RPS6KA2 KD2 (human)): 64%; kinase still bound, per cent of control (RPS6KA4 KD1 (human)): 100%; kinase still bound, per cent of control (SRPK3 (human)): 100%; kinase still bound, per cent of control (STK25 (human)): 56%; kinase still bound, per cent of control (STK3 (human)): 48%; kinase still bound, per cent of control (STK32C (human)): 50%; kinase still bound, per cent of control (TEC (human)): 2%; kinase still bound, per cent of control (TGFBR1 (human)): 98%; kinase still bound, per cent of control (TNK1 (human)): 16%; kinase still bound, per cent of control (ULK2 (human)): 100%; kinase still bound, per cent of control (WEE2 (human)): 89%; kinase still bound, per cent of control (ZAP70 (human)): 100%
Cc1ccc2nc(NCCN)c3ncc(C)n3c2c1 | 78 | 100 | 100 | 24 | 100 | 88 | 100 | 100 | 100 | 90 | 0.55 | 47 | 100 | 100 | 100 | 78 | 100 | 84 | 92 | 71 | kinase still bound, per cent of control (HCK (human)): 100%; kinase still bound, per cent of control (ITK (human)): 100%; kinase still bound, per cent of control (PLK4 (human)): 90%; kinase still bound, per cent of control (PRKCD (human)): 100%; kinase still bound, per cent of control (PRKD3 (human)): 41%; kinase still bound, per cent of control (PTK2 (human)): 97%; kinase still bound, per cent of control (RIOK3 (human)): 100%; kinase still bound, per cent of control (RPS6KA2 KD2 (human)): 97%; kinase still bound, per cent of control (RPS6KA4 KD1 (human)): 100%; kinase still bound, per cent of control (SRPK3 (human)): 100%; kinase still bound, per cent of control (STK25 (human)): 79%; kinase still bound, per cent of control (STK3 (human)): 90%; kinase still bound, per cent of control (STK32C (human)): 94%; kinase still bound, per cent of control (TEC (human)): 100%; kinase still bound, per cent of control (TGFBR1 (human)): 100%; kinase still bound, per cent of control (TNK1 (human)): 100%; kinase still bound, per cent of control (ULK2 (human)): 100%; kinase still bound, per cent of control (WEE2 (human)): 100%; kinase still bound, per cent of control (ZAP70 (human)): 100%
CCCS(=O)(=O)Nc1ccc(F)c(C(=O)c2c[nH]c3ncc(-c4ccc(Cl)cc4)cc23)c1F | 100 | 32 | 100 | 100 | 8.4 | 92 | 100 | 100 | 100 | 93 | 100 | 100 | 27 | 100 | 57 | 100 | 70 | 100 | 78 | 92 | kinase still bound, per cent of control (HCK (human)): 13%; kinase still bound, per cent of control (ITK (human)): 100%; kinase still bound, per cent of control (PLK4 (human)): 48%; kinase still bound, per cent of control (PRKCD (human)): 100%; kinase still bound, per cent of control (PRKD3 (human)): 44%; kinase still bound, per cent of control (PTK2 (human)): 63%; kinase still bound, per cent of control (RIOK3 (human)): 100%; kinase still bound, per cent of control (RPS6KA2 KD2 (human)): 81%; kinase still bound, per cent of control (RPS6KA4 KD1 (human)): 90%; kinase still bound, per cent of control (SRPK3 (human)): 100%; kinase still bound, per cent of control (STK25 (human)): 100%; kinase still bound, per cent of control (STK3 (human)): 1.9%; kinase still bound, per cent of control (STK32C (human)): 100%; kinase still bound, per cent of control (TEC (human)): 100%; kinase still bound, per cent of control (TGFBR1 (human)): 53%; kinase still bound, per cent of control (TNK1 (human)): 100%; kinase still bound, per cent of control (ULK2 (human)): 100%; kinase still bound, per cent of control (WEE2 (human)): 100%; kinase still bound, per cent of control (ZAP70 (human)): 90%
